These results are taken from US20160158377A1, “BCL-XL Inhibitory Compounds and Antibody Drug Conjugates Including the Same” (AbbVie Inc., priority 2014, published 2016).

Like-named read-outs stand apart in the source and are kept apart here.

One test deals with Bcl-xL (Homo sapiens, UniProt Q07817). Put plainly: TR-FRET Bcl-xL binding assay (competition with probe F-Bak). The protocol: For the assay, test compounds were serially diluted in DMSO starting at 50 μM (2× starting concentration; 10% DMSO) and 10 μL transferred into a 384-well plate. 10 μL of a protein/probe/antibody mix was then added to each well at final concentrations listed below:
The samples were then mixed on a shaker for 1 minute and incubated for an additional 2 hours at room temperature. For each assay plate, a probe/antibody and protein/antibody/probe mixture were included as a negative and a positive control, respectively. Fluorescence was measured on the Envision (Perkin Elmer) using a 340/35 nm excitation filter and 520/525 (F-Bak) and 495/510 nm (Tb-labeled anti-his antibody) emission filters. Dissociation constants (Ki) were determined using Wang's equation (Wang, 1995, FEBS Lett. 360:111-114). The TR-FRET assay can be performed in the presence of varying concentrations of human serum (HS) or fetal bovine serum (FBS). Compounds were tested both without HS and in the presence of 1% HS.
In general terms: Time-resolved FRET reads energy transfer from a long-lived donor to a nearby acceptor.

Test [1] concerns Molt-4 human acute lymphoblastic leukemia cells. The test can be described thus: Molt-4 cell viability assay. Type of test: cell-based. The settings on record: 10% human serum, 48 hours, CellTiter-Glo, read-out: Molt-4 Viability EC50 (nM, 10% HS). Here is the method: In one exemplary set of conditions, Molt-4 (ATCC, Manassas, Va.) human acute lymphoblastic leukemia cells were plated 12,500 cells per well in 384-well tissue culture plates (Corning, Corning, N.Y.) in a total volume of 25 μL tissue culture medium supplemented with 10% human serum (Sigma-Aldrich, St. Louis, Mo.) and treated with a 3-fold serial dilution of the compounds of interest from 10 μM to 0.0005 μM. Each concentration was tested in duplicate at least 3 separate times. The number of viable cells following 48 hours of compound treatment was determined using the CellTiter-Glo® Luminescent Cell Viability Assay according to the manufacturer's recommendations (Promega Corp., Madison, Wis.). Compounds were tested in the presence of 10% HS.
(Cellular ATP, detected with luciferase, serves as a proxy for viable cell number.)

[2] abbreviates: in the presence of 1% human serum (HS), read-out: Bcl-xL Binding Ki (nM, 1% HS).
[3] abbreviates: without human serum, read-out: Bcl-xL Binding Ki.

Bcl-xL, sequence (Q07817 whole entry): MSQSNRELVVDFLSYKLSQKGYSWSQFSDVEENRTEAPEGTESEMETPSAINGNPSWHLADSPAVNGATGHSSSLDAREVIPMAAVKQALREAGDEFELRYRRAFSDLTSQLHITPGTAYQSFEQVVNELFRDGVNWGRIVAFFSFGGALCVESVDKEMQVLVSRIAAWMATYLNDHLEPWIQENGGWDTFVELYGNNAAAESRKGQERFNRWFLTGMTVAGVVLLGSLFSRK

As a reminder, the Ki is the equilibrium dissociation constant of an inhibitor or competing ligand from its target. In general, EC50 refers to the concentration at which the effect is half-maximal. With `Cc1c(-c2ccc(N3CCn4c(C(F)(F)F)nc(C(=O)Nc5nc6ccccc6s5)c4C3)nc2C(=O)O)cnn1CC12CC3(C)CC(C)(C1)CC(OCCN)(C3)C2` [Compound W3.20, 3-(1-{[3-(2-aminoethoxy)-5,7-dimethyltricyclo[3.3.1.1^3,7]dec-1-yl]methyl}-5-methyl-1H-pyrazol-4-yl)-6-[1-(1,3-benzothiazol-2-ylcarbamoyl)-3-(trifluoromethyl)-5,6-dihydroimidazo[1,5-a]pyrazin-7(8H)-yl]pyridine-2-carboxylic acid], the Ki is 0.014 nM at Bcl-xL (setting [2]) and under 0.01 nM on Bcl-xL (setting [3]). Also, the EC50 in test [1] was 18.2 nM.

Consider `Cc1c(-c2ccc(-c3cc4cccc(C(=O)Nc5nc6ccccc6s5)c4[nH]3)nc2C(=O)O)cnn1CC12CC3(C)CC(C)(C1)CC(OCCN)(C3)C2` [Compound W3.28, 3-(1-{[3-(2-aminoethoxy)-5,7-dimethyltricyclo[3.3.1.1^3,7]dec-1-yl]methyl}-5-methyl-1H-pyrazol-4-yl)-6-[7-(1,3-benzothiazol-2-ylcarbamoyl)-1H-indol-2-yl]pyridine-2-carboxylic acid], for which the figures for the inhibition constant Ki on Bcl-xL (setting [2]) and at Bcl-xL (setting [3]) were 0.17 nM and under 0.01 nM, respectively. For the same molecule, the EC50 in test [1] was determined as 8.38 nM.

As to `CNCCOC12CC3(C)CC(C)(CC(Cn4ncc(-c5ccc(-c6cnc7[nH]cc(C(=O)Nc8nc9ccccc9s8)c7c6)nc5C(=O)O)c4C)(C3)C1)C2` [Compound W3.35, 6-[3-(1,3-benzothiazol-2-ylcarbamoyl)-1H-pyrrolo[2,3-b]pyridin-5-yl]-3-[1-({3,5-dimethyl-7-[2-(methylamino)ethoxy]tricyclo[3.3.1.1^3,7]dec-1-yl}methyl)-5-methyl-1H-pyrazol-4-yl]pyridine-2-carboxylic acid], the Ki at Bcl-xL (setting [2]) was 0.16 nM; at Bcl-xL (setting [3]), 0.022 nM. Moreover, in test [1], the EC50 was 658 nM.

Consider `CNCCOC12CC3(C)CC(C)(CC(Cn4ncc(-c5ccc(-c6ccc7nccc(C(=O)Nc8nc9ccccc9s8)c7c6)nc5C(=O)O)c4C)(C3)C1)C2` [Compound W3.11, 6-[4-(1,3-benzothiazol-2-ylcarbamoyl)quinolin-6-yl]-3-[1-({3,5-dimethyl-7-[2-(methylamino)ethoxy]tricyclo[3.3.1.1^3,7]dec-1-yl}methyl)-5-methyl-1H-pyrazol-4-yl]pyridine-2-carboxylic acid], for which the results for the Ki on Bcl-xL (setting [2]) and on Bcl-xL (setting [3]) were 0.94 nM and under 0.001 nM, respectively. The EC50 in test [1] is 34.3 nM.

Take `CNCCOC12CC3(C)CC(C)(CC(Cn4ncc(-c5ccc(-c6ccc7c(c6)N(C(=O)Nc6nc8ccccc8s6)CCN7C)nc5C(=O)O)c4C)(C3)C1)C2` [Compound W3.03, 6-[4-(1,3-benzothiazol-2-ylcarbamoyl)-1-methyl-1,2,3,4-tetrahydroquinoxalin-6-yl]-3-[1-({3,5-dimethyl-7-[2-(methylamino)ethoxy]tricyclo[3.3.1.1^3,7]dec-1-yl}methyl)-5-methyl-1H-pyrazol-4-yl]pyridine-2-carboxylic acid]: the Ki at Bcl-xL (setting [2]) is 0.019 nM; on Bcl-xL (setting [3]) it was under 0.001 nM. The EC50 in test [1] worked out at 1.4 nM.

Regarding `CNCCOC12CC3(C)CC(C)(CC(Cn4ncc(-c5ccc(-c6ccc7cccc(C(=O)Nc8nc9ccccc9s8)c7c6)nc5C(=O)O)c4C)(C3)C1)C2` [Compound W3.06, 6-[8-(1,3-benzothiazol-2-ylcarbamoyl)naphthalen-2-yl]-3-[1-({3,5-dimethyl-7-[2-(methylamino)ethoxy]tricyclo[3.3.1.1^3,7]dec-1-yl}methyl)-5-methyl-1H-pyrazol-4-yl]pyridine-2-carboxylic acid], the figures for the Ki on Bcl-xL (setting [2]) and at Bcl-xL (setting [3]) were 0.22 nM and under 0.001 nM, respectively. In addition, in test [1], the EC50 is 3.8 nM.

On to `Cc1c(-c2ccc(N3CCc4c(O)ccc(C(=O)Nc5nc6ccccc6s5)c4C3)nc2C(=O)O)cnn1CC12CC3(C)CC(C)(C1)CC(OCCN)(C3)C2` [Compound W3.05, 3-(1-{[3-(2-aminoethoxy)-5,7-dimethyltricyclo[3.3.1.1^3,7]dec-1-yl]methyl}-5-methyl-1H-pyrazol-4-yl)-6-[8-(1,3-benzothiazol-2-ylcarbamoyl)-5-hydroxy-3,4-dihydroisoquinolin-2(1H)-yl]pyridine-2-carboxylic acid], for which the Ki at Bcl-xL (setting [2]) is 0.23 nM; at Bcl-xL (setting [3]) it was 0.02 nM. In addition, in test [1], the EC50 worked out at 79 nM.

As for `Cc1c(-c2ccc(N3CCc4cccc(C(=O)Nc5nc6ccccc6s5)c4C3)nc2C(=O)O)cnn1CC12CC3(C)CC(C)(C1)CC(OCCNC1COC1)(C3)C2` [Compound W3.16, 6-[8-(1,3-benzothiazol-2-ylcarbamoyl)-3,4-dihydroisoquinolin-2(1H)-yl]-3-[1-({3,5-dimethyl-7-[2-(oxetan-3-ylamino)ethoxy]tricyclo[3.3.1.1^3,7]dec-1-yl}methyl)-5-methyl-1H-pyrazol-4-yl]pyridine-2-carboxylic acid], the Ki on Bcl-xL (setting [2]) is 0.14 nM; on Bcl-xL (setting [3]), under 0.001 nM. Further, in test [1], the EC50 came out at 3.7 nM.

With `Cc1c(-c2ccc(N3CCc4cccc(C(=O)Nc5nc6ccccc6s5)c4C3)nc2C(=O)O)cnn1CC12CC3(C)CC(C)(C1)CC(OCCNC1CN(S(C)(=O)=O)C1)(C3)C2` [Compound W3.31, 6-[8-(1,3-benzothiazol-2-ylcarbamoyl)-3,4-dihydroisoquinolin-2(1H)-yl]-3-(1-{[3,5-dimethyl-7-(2-{[1-(methylsulfonyl)azetidin-3-yl]amino}ethoxy)tricyclo[3.3.1.1^3,7]dec-1-yl]methyl}-5-methyl-1H-pyrazol-4-yl)pyridine-2-carboxylic acid], the Ki on Bcl-xL (setting [2]) was 0.684 nM; on Bcl-xL (setting [3]) it was 0.012 nM. The EC50 in test [1] came out at 14.4 nM.

Consider `CNCCOC12CC3(C)CC(C)(CC(Cn4ncc(-c5ccc(-c6ccc7cccc(C(=O)Nc8nc9cccnc9s8)c7c6)nc5C(=O)O)c4C)(C3)C1)C2` [Compound W3.07, 3-[1-({3,5-dimethyl-7-[2-(methylamino)ethoxy]tricyclo[3.3.1.1^3,7]dec-1-yl}methyl)-5-methyl-1H-pyrazol-4-yl]-6-[8-([1,3]thiazolo[5,4-b]pyridin-2-ylcarbamoyl)naphthalen-2-yl]pyridine-2-carboxylic acid], for which the Ki at Bcl-xL (setting [2]) was 0.29 nM; at Bcl-xL (setting [3]) it was under 0.001 nM. In addition, the EC50 in test [1] is 432 nM.

With `CNCCOC12CC3(C)CC(C)(CC(Cn4ncc(-c5ccc(-c6ccc7cccc(C(=O)Nc8nc9ncccc9s8)c7c6)nc5C(=O)O)c4C)(C3)C1)C2` [Compound W3.08, 3-[1-({3,5-dimethyl-7-[2-(methylamino)ethoxy]tricyclo[3.3.1.1^3,7]dec-1-yl}methyl)-5-methyl-1H-pyrazol-4-yl]-6-[8-([1,3]thiazolo[4,5-b]pyridin-2-ylcarbamoyl)naphthalen-2-yl]pyridine-2-carboxylic acid], the Ki is 0.013 nM at Bcl-xL (setting [2]) and under 0.001 nM at Bcl-xL (setting [3]). Besides, the EC50 in test [1] is 40 nM.

`Cc1c(-c2ccc(N3CCc4c(C#N)ccc(C(=O)Nc5nc6ccccc6s5)c4C3)nc2C(=O)O)cnn1CC12CC3(C)CC(C)(C1)CC(OCCN)(C3)C2` [Compound W3.13, 3-(1-{[3-(2-aminoethoxy)-5,7-dimethyltricyclo[3.3.1.1^3,7]dec-1-yl]methyl}-5-methyl-1H-pyrazol-4-yl)-6-[8-(1,3-benzothiazol-2-ylcarbamoyl)-5-cyano-3,4-dihydroisoquinolin-2(1H)-yl]pyridine-2-carboxylic acid]: the results for the Ki at Bcl-xL (setting [2]) and on Bcl-xL (setting [3]) were 6.8 nM and 0.013 nM, respectively. Further, the EC50 in test [1] was determined as 2290 nM.

For the molecule `Cc1c(-c2ccc(N3CCc4cccc(C(=O)Nc5nc6ccccc6s5)c4C3)nc2C(=O)O)cnn1CC12CC3(C)CC(C)(C1)CC(OCCNC1CCN(S(C)(=O)=O)CC1)(C3)C2` [Compound W3.30, 6-[8-(1,3-benzothiazol-2-ylcarbamoyl)-3,4-dihydroisoquinolin-2(1H)-yl]-3-(1-{[3,5-dimethyl-7-(2-{[1-(methylsulfonyl)piperidin-4-yl]amino}ethoxy)tricyclo[3.3.1.1^3,7]dec-1-yl]methyl}-5-methyl-1H-pyrazol-4-yl)pyridine-2-carboxylic acid], the Ki on Bcl-xL (setting [2]) amounted to 0.891 nM; at Bcl-xL (setting [3]), 0.011 nM. In addition, in test [1], the EC50 came out at 16.3 nM.

In the case of `CNCC#Cc1cc2c(c(C(=O)Nc3nc4ccccc4s3)c1)CN(c1ccc(-c3cnn(CC45CC6(C)CC(C)(C4)CC(OCCOC)(C6)C5)c3C)c(C(=O)O)n1)CC2` [Compound W3.25, 6-[8-(1,3-benzothiazol-2-ylcarbamoyl)-6-[3-(methylamino)prop-1-yn-1-yl]-3,4-dihydroisoquinolin-2(1H)-yl]-3-(1-{[3-(2-methoxyethoxy)-5,7-dimethyltricyclo[3.3.1.1^3,7]dec-1-yl]methyl}-5-methyl-1H-pyrazol-4-yl)pyridine-2-carboxylic acid], the values for the Ki at Bcl-xL (setting [2]) and on Bcl-xL (setting [3]) were 0.9 nM and 0.138 nM, respectively. The EC50 in test [1] is 424 nM.
